What all share (assay): Antibacterial MIC assay (NCCLS M7-T2 microtiter broth dilution)
Type in all cases: cell-based
(In general: Dilution methods test growth across graded concentrations, often in twofold steps.)

Assay [1] has as its system P. aeruginosa strain ATCC 27853. The conditions noted are these: P. aeruginosa ATCC 27853; Mueller Hinton broth, 16-20 hours at 37° C.; lowest concentration giving a clear well. From the text:
(§1) Table I, which follows, indicates the Minimal Inhibitory Concentration (MIC) in μg/ml of Peptides (SEQ ID NO:1) through (SEQ ID NO:3), (SEQ ID NO:5), (SEQ ID NO:6), (SEQ ID NO:9) through (SEQ ID NO:11), and (SEQ ID NO:17) against S.aureus strain ATCC 25923, P. aeruginosa strain ATCC 27853, and E.coli ATCC strain 25922. The procedure for the antibacterial assay is based upon the guidelines of the National Committee for Clinical Laboratory Standards, Document M7-T2, Volume 8, No. 8, 1988. Stock solutions of peptides (SEQ ID NO: 1) through (SEQ ID NO:3), (SEQ ID NO:5), (SEQ ID NO:S), (SEQ ID NO:9) through (SEQ ID NO:12), and […] in accordance with the present invention are prepared at a concentration of 512 μg/ml in sterile deionized distilled water and stored at -70° C. Each peptide is a C-terminal amide and may or may not be acetylated at the N-Terminus. An acetyl group at the N-terminus is indicated by an X. The stock peptide solution is diluted in serial dilutions (1:2) down the wells of a microtiter plate so that the final concentrations of peptides in the wells are 0.25, 0.50, i, 2,4, 8, 16, 32, 64, 128, and 256 μg/ml. 1-5×10^5 CFUs/ml of either S. aureus ATCC 25923, E. coli ATCC 25922, or P. aeruginosa ATCC 27853 were added to the wells in full strength Mueller Hinton broth (BBL 11443) from a mid-log culture. The inoculum is standardized spectrophotometrically at 600 nm and is verified by colony counts. The plates are incubated for 16-20 hours at 37° C., and the minimal inhibitory concentration (MIC) for each peptide is determined. Minimal inhibitory concentration is defined as the lowest concentration of peptide which produces a clear well in the microtiter plate. The minimal inhibitory concentration of each of (SEQ ID NO:1) through (SEQ ID NO:3), (SEQ ID NO:5), (SEQ ID NO:6), (SEQ ID NO:9) through (SEQ ID NO:11), and (SEQ ID NO:17) is given in Table I below.

In a further assay the test system is E.coli ATCC strain 25922. The settings on record: E. coli ATCC 25922; Mueller Hinton broth, 16-20 hours at 37° C.; lowest concentration giving a clear well.
Description: as §1

The subject of assay [2] is S. aureus strain ATCC 25923. The conditions noted are these: S. aureus ATCC 25923; Mueller Hinton broth, 16-20 hours at 37° C.; lowest concentration giving a clear well.
Description: as §1

Ends that are not written are not given here. Some results are limits rather than exact numbers.

Take “Ac-LKLLKKLLKKNKKLLKKL-NH2 [X-(SEQ ID NO: 9)-NH2]”: the “Minimal Inhibitory Concentration P. aeruginosa” value in assay [1] is 8 µg/mL. Further, the “Minimal Inhibitory Concentration E. coli” value with E.coli ATCC strain 25922 is 64 µg/mL. Besides, the “Minimal Inhibitory Concentration S. aureus” value in assay [2] turned out to be 16 µg/mL.
Regarding “Ac-LLKKLKKLLKLL-NH2 [X-(SEQ ID NO: 2)-NH2]”, the “Minimal Inhibitory Concentration P. aeruginosa” value in assay [1] worked out at 16 µg/mL. Moreover, the “Minimal Inhibitory Concentration E. coli” value with E.coli ATCC strain 25922 is given as 8,16 μg/ml. For the same substance, in assay [2], the “Minimal Inhibitory Concentration S. aureus” value was 16 µg/mL.
As to KLLKKLKKLLKLL-NH2 [(SEQ ID NO.:3)-NH2], the “Minimal Inhibitory Concentration P. aeruginosa” value in assay [1] was 16 µg/mL. In assay [2], the “Minimal Inhibitory Concentration S. aureus” value turned out to be 64 µg/mL.
Consider “Ac-LKLLKKLLKKPKKLLKKL-NH2 [X-(SEQ ID NO: 10)-NH2]”, for which the “Minimal Inhibitory Concentration P. aeruginosa” value in assay [1] is 16 µg/mL. The “Minimal Inhibitory Concentration E. coli” value with E.coli ATCC strain 25922 stood at 64 µg/mL. Further, the “Minimal Inhibitory Concentration S. aureus” value in assay [2] was 16,32 μg/ml.
Consider “Ac-KKLLKKLKKLLKKLRR-NH2 [X-(SEQ ID NO: 5)-NH2]”, for which the “Minimal Inhibitory Concentration P. aeruginosa” value in assay [1] stood at 8 µg/mL. Also, the “Minimal Inhibitory Concentration E. coli” value in the assay on E.coli ATCC strain 25922 is 32 µg/mL. In addition, the “Minimal Inhibitory Concentration S. aureus” value in assay [2] was found to be 4 µg/mL.
The like results for “Ac-LKKLLKKLKKL-NH2 [X-(SEQ ID NO: 17)-NH2]” were, in that order, 8,16 μg/ml, 32,64 μg/ml and 256 µg/mL.
For LKKLKKLLKLL-NH2 [(SEQ ID NO.: 1)-NH2] the same measures were 8,16 μg/ml, 8,16 μg/ml and 64,128 μg/ml.
The like results for “Ac-LKKLKKLLKLL-NH2 [X-(SEQ ID NO: 1)-NH2]” were, in that order, 4,8 μg/ml, 4 µg/mL and 16 µg/mL.
For “Ac-KLLKKLKKLLKLL-NH2 [X-(SEQ ID NO: 3)-NH2]”, the “Minimal Inhibitory Concentration P. aeruginosa” value in assay [1] was determined as 16 µg/mL. Further, the “Minimal Inhibitory Concentration E. coli” value with E.coli ATCC strain 25922 is recorded as 8,16 μg/ml. Moreover, in assay [2], the “Minimal Inhibitory Concentration S. aureus” value came to 64 µg/mL.
In the case of LLKKLKKLLKLL-NH2 [(SEQ ID NO.:2)-NH2], in assay [1], the “Minimal Inhibitory Concentration P. aeruginosa” value came to 16 µg/mL. The “Minimal Inhibitory Concentration E. coli” value with E.coli ATCC strain 25922 is 8,16 μg/ml. Further, the “Minimal Inhibitory Concentration S. aureus” value in assay [2] stood at 16 µg/mL.
In the case of LKKLLKKLKKL-NH2 [(SEQ ID NO: 17)-NH2], the “Minimal Inhibitory Concentration P. aeruginosa” value in assay [1] is listed as 32,64 μg/ml. Besides, the “Minimal Inhibitory Concentration E. coli” value with E.coli ATCC strain 25922 is recorded as 64,128 μg/ml. For the same substance, in assay [2], the “Minimal Inhibitory Concentration S. aureus” value is more than 256 µg/mL.

The values above are taken from patent US5470950A, “Biologically active amphiphilic peptide compositions and uses therefor” (Magainin Pharmaceuticals Inc., priority 1994, dated 1995).
